The text below walks through data of publication PMC10762035, “Molecular basis of human trace amine-associated receptor 1 activation” (Nature Communications, 2024).

Experiment [1] concerns the target T1, hTA1 (Homo sapiens, UniProt Q96RJ0).
T1 construct: expressed in transfected cells; host or cells: HEK293T
T1 sequence (Q96RJ0 1-339): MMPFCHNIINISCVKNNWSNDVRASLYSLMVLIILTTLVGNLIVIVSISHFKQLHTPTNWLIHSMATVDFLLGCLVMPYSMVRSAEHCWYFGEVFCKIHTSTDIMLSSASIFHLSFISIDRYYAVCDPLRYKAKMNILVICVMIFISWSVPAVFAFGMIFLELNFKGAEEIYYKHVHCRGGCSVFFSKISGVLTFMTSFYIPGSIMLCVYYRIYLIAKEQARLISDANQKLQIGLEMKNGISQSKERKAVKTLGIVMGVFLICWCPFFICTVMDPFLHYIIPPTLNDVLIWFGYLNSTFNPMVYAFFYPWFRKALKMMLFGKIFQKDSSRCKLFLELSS
The experiment can be described thus: Screen of 89 aminergic compounds at 10 µM, cAMP accumulation in HEK293T cells.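 Further: HEK293T cells co-transfected with hTA1 and GloSensor cAMP reporter, cAMP accumulation detected by luminescence.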 It is filed as cell-based. As to conditions: quadruplicate values; screen at 10 µM. A general note: cAMP levels reflect the balance of adenylyl cyclase and phosphodiesterase activity.

For experiment [2], the target named is T1, hTA1. The experiment can be described thus: GloSensor cAMP accumulation assay, concentration response, wild-type hTA1 in transfected HEK293T cells.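 Further: luminescence read after 30 min compound exposure at room temperature in cells preloaded with D-Luciferin, reflecting Gs-driven cAMP rise, efficacy scaled to the maximal β-PEA response.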 It is filed as cell-based. As to conditions: log[Compound], replicate wells.

Values joined by “and” are separate entries in the source; they are usually repeats but may differ in a detail not shown here. Equal entries are not always repeated. Structures can show the parent of a compound that is named as a salt.

Consider `CCN(CC)C(=O)[C@@H]1C=C2c3cccc4[nH]c(Br)c(c34)C[C@H]2N(C)C1` [2-Br LSD], for which, on hTA1 [1], the “Luminescence for Screening Data” value is 10.4 and 10.1 and 9.5 and 7.6.
As to `CCCCCCCCCOc1ccc2[nH]cc(CCN)c2c1` [5-nonyloxytryptamine], on hTA1 [1], the “Luminescence for Screening Data” value was 10.6 and 10.3 and 13.3 and 10.2.
For `NCCc1c[nH]c2ccc(O)cc12` [5HT], the “Normalized Luminescence Counts for WT hTA1” value on hTA1 [2] (M = -5) was 22.7551 and 23.5409 and 27.4699 and 21.1146 and 16.9666 and 15.5049; at hTA1 [2] (M = -5.522) it was 12.7034 and 13.2601 and 13.0636 and 11.1989 and 10.4878 and 9.8162; on hTA1 [2] (M = -6), 16.6652 and 17.3528 and 14.4388 and 9.54 and 6.932 and 6.5768; on hTA1 [2] (M = -6.522), 9.953 and 14.2096 and 13.2928 and 9.698 and 6.261 and 7.564; at hTA1 [2] (M = -7) it was 9.7567 and 9.593 and 11.8194 and 6.3 and 5.55 and 6.814; on hTA1 [2] (M = -7.522) it was 9.298 and 11.492 and 8.12 and 4.167 and 4.444 and 4.799. The “Normalized Luminescence Counts for WT hTA1” value on hTA1 [2] (M = -8) is 9.298 and 7.236 and 9.822 and 3.732 and 3.653 and 4.048; at hTA1 [2] (M = -8.522), 4.387 and 5.369 and 8.578 and 1.7177 and 3.258 and 2.5868; at hTA1 [2] (M = -9), 3.339 and 1.604 and 3.176 and 2.073 and 0.9671 and 0.7301; at hTA1 [2] (M = -9.522) it was 0.589 and 1.473 and 1.408 and 0.01898 and -0.2575 and -0.4946; at hTA1 [2] (M = -10), 1.702 and 0.2289 and 0.1307 and -0.9291 and -0.09953 and -0.2971; at hTA1 [2] (M = -10.522), 0.6218 and 0.8182 and -0.295 and -1.285 and -0.7316 and -1.364. The “Normalized Luminescence Counts for WT hTA1” value at hTA1 [2] (M = -11) is -0.2622 (2×) and -0.5897 and 0.335 and 0.177 and -0.02052; at hTA1 [2] (M = -11.522), 0.06517 and 0.3926 and -0.09854 and -0.1785 (2×) and 0.09799; on hTA1 [2] (M = -12) it was 0.1307 and 0.5563 and -0.6551 and -0.6131 and 0.256 and 0.2955; at hTA1 [2] (M = -12.522), -0.2295 and 0.1307 and -0.1313 and 0.6906 and 0.8486 and -0.6921.
On to `Cc1nn(C)c(C)c1-c1cccc2c1CC[C@H](N(C)C)C2` [AS19], for which the “Luminescence for Screening Data” value on hTA1 [1] was 9.8 and 9.9 and 8 and 6.8.
As to `CN(C)c1ccc(/C=C/c2cc[n+](C)cc2)cc1.[I-]` [ASP-iodide], the “Luminescence for Screening Data” value at hTA1 [1] was 6.9 and 6.2 and 4.9 and 4.4.
In the case of `C=CCc1ccccc1OCC(O)CNC(C)C` (centres unmarked) [Alprenolol], the “Luminescence for Screening Data” value on hTA1 [1] is 10.1 and 8.4 and 7.8 and 6.7.
For `Cl.O=C(c1ccc(F)cc1)C1CCN(CCn2c(=S)[nH]c3ccccc3c2=O)CC1` [Altanserin hydrochloride hydra], at hTA1 [1], the “Luminescence for Screening Data” value is 9.1 and 6 and 8.8 and 5.9.
Same read-out and setting: for `N=C(N)NC(=O)c1nc(Cl)c(N)nc1N` [Amiloride] the value was 9.5 and 8.8 and 7 and 8.1; for `CCN1CCCC1CNC(=O)c1cc(S(=O)(=O)CC)c(N)cc1OC` (centres unmarked) [Amisulpride], 8 and 6.7 and 8.1 and 7; for `O=C1CCc2ccc(OCCCCN3CCN(c4cccc(Cl)c4Cl)CC3)cc2N1` [Aripiprazole], 3.9 and 3.4 and 5.3 and 4.7.
For `CN1CC2c3ccccc3Oc3ccc(Cl)cc3C2C1` (centres unmarked) [Asenapine maleate], on hTA1 [1], the “Luminescence for Screening Data” value was 139.1 and 129.2 and 126.2 and 110.4.
Consider `NCCc1ccccc1` [B-PEA], for which, on hTA1 [1], the “Luminescence for Screening Data” value was 160.4 and 164.2 and 180.4 and 167.
Same read-out and setting: the figure for `CN1CCC(c2c[nH]c3ccc(O)cc23)CC1` [BRL 54443] is 10 and 7.1 and 8.1 and 6.4; for `C=CCN1C[C@H](C(=O)N(CCCN(C)C)C(=O)NCC)C[C@@H]2c3cccc4[nH]cc(c34)C[C@H]21` [Cabergoline] it is 7.4 and 6.2 and 7 and 5.7; for `CN/C(=N/CCSCc1nc[nH]c1C)NC#N` [Cimetidine] it is 8.3 and 6.6 and 8.6 and 5.4.
Consider `CC[C@@H](CO)NC(=O)[C@@H]1C=C2c3cccc4[nH]cc(c34)C[C@H]2N(C)C1` [Methylergonovine], for which the “Normalized Luminescence Counts for WT hTA1” value at hTA1 [2] (M = -5) is 45.3336 and 42.9514 and 53.7117 and 43.7792 and 37.0624 and 36.5834; on hTA1 [2] (M = -5.522) it was 17.8708 and 18.4864 and 21.6449 and 29.4218 and 29.3534 and 29.1139; at hTA1 [2] (M = -6), 12.9992 and 11.3664 and 9.546 and 15.3039 and 15.0416 and 13.8556; on hTA1 [2] (M = -6.522) it was 6.093 and 6.147 and 6.254 and 7.082 and 6.8879 and 7.207; on hTA1 [2] (M = -7), 4.514 and 3.604 and 5.103 and 3.125 and 3.353 and 3.387; on hTA1 [2] (M = -7.522), 2.5066 and 3.845 and 3.203 and 2.03 and 1.87 and 2.201. For the same compound, the “Normalized Luminescence Counts for WT hTA1” value was 2.5869 and 2.4263 and 1.489 and 1.2088 and 1.368 and 1.722 at hTA1 [2] (M = -8); 1.65 and 1.864 and 0.9274 and 1.414 and 1.14 and 1.916 at hTA1 [2] (M = -8.522); 0.3385 and 0.4991 and -0.009489 and 1.152 and 1.026 and 0.8895 on hTA1 [2] (M = -9); -0.06302 and -0.3842 and -0.8125 and 0.7184 and 0.4676 and 0.4447 on hTA1 [2] (M = -9.522); -0.08979 and -0.3039 and -0.2504 and 0.2509 and 0.1026 and 0.2167 on hTA1 [2] (M = -10); -0.3039 and -0.4645 and -0.2236 and 0.05702 and 0.03421 and -0.1026 at hTA1 [2] (M = -10.522). Further, the “Normalized Luminescence Counts for WT hTA1” value on hTA1 [2] (M = -11) is 0.09758 and -0.2772 and 0.4723 and 0.1825 and -0.1939 and 0; at hTA1 [2] (M = -11.522), 0.4188 and 0.74 and 0.6597 and 0.2395 and 0.7298 and 0.3877; on hTA1 [2] (M = -12) it was 0.5794 and 0.8471 and 0.74 and 0.3079 and 0.2281 and 0.479; at hTA1 [2] (M = -12.522), -0.4378 and 0.6865 and 0.7668 and 0.6272 and 0.479 and 0.1026.
With `NCCc1ccccc1` [bPEA], the “Normalized Luminescence Counts for WT hTA1” value was 114.55 and 104.58 and 118.623 and 102.53 and 95.7683 and 107.085 at hTA1 [2] (M = -5); 96.3904 and 87.8446 and 97.5922 and 98.0692 and 90.9789 and 92.0588 at hTA1 [2] (M = -5.522); 88.2006 and 75.1148 and 94.0536 and 103.14 and 88.8658 and 89.805 on hTA1 [2] (M = -6); 73.7573 and 64.299 and 91.1383 and 74.7791 and 68.7219 and 73.7461 at hTA1 [2] (M = -6.522); 70.4636 and 45.5827 and 61.4726 and 66.5619 and 44.258 and 53.6961 at hTA1 [2] (M = -7); 36.1467 and 21.3027 and 35.9464 and 26.7905 and 17.9158 and 22.3766 at hTA1 [2] (M = -7.522). Besides, the “Normalized Luminescence Counts for WT hTA1” value was 22.727 and 16.7405 and 21.3472 and 13.3611 and 11.9525 and 11.6238 on hTA1 [2] (M = -8); 4.5 and 4.523 and 5.969 and 4.393 and 2.514 and 2.6083 on hTA1 [2] (M = -8.522); 1.986 and 1.318 and 1.8743 and 1.716 and 1.012 and 1.106 at hTA1 [2] (M = -9); -1.063 and -1.33 and -0.4402 and -0.06817 and 0.1666 and -0.4908 on hTA1 [2] (M = -9.522); -0.596 and -1.264 and -0.5515 and -0.4438 and -0.7725 and -0.6786 on hTA1 [2] (M = -10); -1.3749 and -1.931 and -0.6405 and 0.0727 and -0.5847 and -1.101 at hTA1 [2] (M = -10.522). For the same compound, the “Normalized Luminescence Counts for WT hTA1” value at hTA1 [2] (M = -11) was -0.1286 and -1.241 and 0.2497 and 0.6362 and -0.3499 and -0.7725; at hTA1 [2] (M = -11.522), -0.01735 and -1.575 and -0.7963 and 0.5892 and -0.3969 and -0.256; on hTA1 [2] (M = -12) it was -1.353 and -1.3749 and -1.286 and 0.02574 and -0.4908 and -0.3029; at hTA1 [2] (M = -12.522), -1.152 and -1.664 and -0.9075 and 0.5892 (2×) and 0.4483.
